Here are results for ten compounds from patent US6716851B2, “Substituted 2-aryl-4-arylaminopyrimidines and analogs as activators or caspases and inducers of apoptosis and the use thereof” (Cytovia, Inc., priority 2000, dated 2004).

pEC50: −log10 of the molar value. Structures can show the parent of a compound that is named as a salt.

The subject of one assay is T-47D cells. In words: Caspase cascade activation (N-(Ac-DEVD)-N'-ethoxycarbonyl-R110 fluorogenic substrate) in T-47D cells. Type of assay: cell-based, Human. Conditions: 48 h incubation; for pEC50: Homo sapiens, T47D, caspase activation potency, read-out: T47 EC50; for T47 Ratio 48 hr: caspase activity: ratio of net RFU of test compound to control. In outline:
(§1)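 EC50 comes from sigmoidal fitting of the net RFU ratio over DMSO control, read at ex 485/em 530 nm 3 h after adding 14 μM Ac-DEVD-R110 in lysolecithin/DTT/PIPES pH 7.2 buffer. Compound (0.016-10 μM final) was applied to cells for 48 h at 37 °C beforehand.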

Another assay has as its system ZR-75-1 cells. Kind of assay: Caspase cascade activation (N-(Ac-DEVD)-N'-ethoxycarbonyl-R110 fluorogenic substrate) in ZR-75-1 cells. Type of assay: cell-based, Human. The conditions noted are these: ZR-75-1, 48 h incubation; for pEC50: Homo sapiens, caspase activation potency; for ZR Ratio 48 hr: caspase activity: ratio of net RFU of test compound to control. In outline: as §1

On to `COc1cc(Nc2cc(C(F)(F)F)nc(-c3cnccn3)n2)cc(OC)c1` [Example 183, 4-(3,5-Dimethoxyanilino)-2-(2-pyrazinyl)-6-trifluoromethylpyrimidine], for which, in the assay with T-47D cells, the negative-log EC50 (pEC50) was 7.09 and the “T47 Ratio 48 hr” value is 17.3. Also, in the assay with ZR-75-1 cells, the negative logarithm of the EC50 (pEC50) was 7.12 and the “ZR Ratio 48 hr” value is reported as 11.5.
In the same order, the values of `COc1ccc(OC)c(Nc2cc(C(F)(F)F)nc(-c3cccnc3)n2)c1` [Example 38, 4-(2,5-Dimethoxyanilino)-2-(3-pyridinyl)-6-(trifluoromethyl)pyrimidine] are 7.72, 8.8, 7.16 and 12.4.
In the same order, the values of `COc1cccc(Nc2cc(C(F)(F)F)nc(-c3cnccn3)n2)c1` [Example 74, 4-(3-Methoxyanilino)-2-(2-pyrazinyl)-6-(trifluoromethyl)pyrimidine] are 6.44, 16.4, 6.49 and 13.1.
As to `Cc1ccc(C)c(Nc2cc(C(F)(F)F)nc(-c3ccncc3)n2)c1` [Example 115, 4-(2,5-Dimethylanilino)-2-(4-pyridinyl)-6-(trifluoromethyl)pyrimidine hydrochloride], in the assay with T-47D cells, the negative logarithm of the EC50 (pEC50) is 6.95 and the “T47 Ratio 48 hr” value is recorded as 14.2. Besides, in the assay on ZR-75-1 cells, the pEC50 is 7.23 and the “ZR Ratio 48 hr” value is 11.6.
On the same counts, the results for `COc1cc(Nc2cc(C(F)(F)F)nc(-c3cnccn3)n2)c(OC)cc1Cl.Cl` [Example 151, 4-(4-Chloro-2,5-dimethoxyanilino)-(2-pyrazinyl)-6-(trifluoromethyl)pyrimidine hydrochloride] are 6.41, 12.0, 6.56 and 8.6.
In the same order, the values of `COc1ccc(Cl)c(Nc2cc(C)nc(-c3ccccn3)n2)c1` [Example 52, 4-(2-Chloro-5-methoxyanilino)-6-methyl-2-(2-pyridinyl)pyrimidine] are 6.97, 20.9, 7.01 and 7.2.
On the same counts, the results for `COc1cc(C)c(Nc2cc(C(F)(F)F)nc(-c3cnccn3)n2)cc1OC.Cl` [Example 153, 4-(4,5-Dimethoxy-2-methylanilino)-2-(2-pyrazinyl)-6-(trifluoromethyl)pyrimidine hydrochloride] are 7.37, 15.7, 6.84 and 9.3.
Take `COc1ccc(Oc2ccccc2)cc1Nc1cc(C(F)(F)F)nc(-c2cccnc2)n1` [Example 85, 4-(2-Methoxy-5-phenoxyanilino)-2-(3-pyridinyl)-6-(trifluoromethyl)pyrimidine]: in the assay on T-47D cells, the negative-log EC50 (pEC50) was below 5.30 and the “T47 Ratio 48 hr” value amounted to 1.7. In the assay on ZR-75-1 cells, the pEC50 was 5.55 and the “ZR Ratio 48 hr” value is 6.7.
On the same counts, the results for `COc1cc(Nc2cc(C(F)(F)F)nc(-c3cccnc3)n2)cc(OC)c1.Cl` [Example 122, 4-(3,5-Dimethoxyanilino)-2-(3-pyridinyl)-6-(trifluoromethyl)pyrimidine hydrochloride] are 7.36, 11.1, 6.72 and 10.1.
Consider `COc1ccc(C)c(Nc2cc(-c3ccccn3)nc(-c3ccccn3)n2)c1` [Example 111, 4-(5-Methoxy-2-methylanilino)-2,6-di(2-pyridinyl)pyrimidine], for which, in the assay with T-47D cells, the pEC50 was 5.85 and the “T47 Ratio 48 hr” value stood at 4.0. In addition, in the assay with ZR-75-1 cells, the pEC50 is 5.59 and the “ZR Ratio 48 hr” value is 3.9.

By pEC50 is commonly meant −log10 of the EC50, conventionally taken in molar units.
